According to ChEMBL document CHEMBL5303573, “Mapping human microbiome drug metabolism by gut bacteria and their genes” (Nature, 2019):

Columns and labels:
[1] = The drug is tested on Collinsella intestinalis strain: DSM13280 for biotransformation. The drug concentrations were measured before and after a 12-h incubation by liquid-chromatography-coupled mass spectrometry (LC–MS); conditions: 2 µM
[2] = The drug is tested on Bacteroides xylanisolvens strain: DSM18836 for biotransformation. The drug concentrations were measured before and after a 12-h incubation by liquid-chromatography-coupled mass spectrometry (LC–MS); conditions: 2 µM
[3] = The drug is tested on Blautia luti strain: DSM14534 for biotransformation. The drug concentrations were measured before and after a 12-h incubation by liquid-chromatography-coupled mass spectrometry (LC–MS); format: ADME; parameters: dose 2 uM, timepoint 0 vs 12 hours; conditions: 2 µM
[4] = The drug is tested on Clostridium scindens strain: ATCC35704 for biotransformation. The drug concentrations were measured before and after a 12-h incubation by liquid-chromatography-coupled mass spectrometry (LC–MS); conditions: 2 µM
[5] = The drug is tested on Clostridium sporogenes strain: ATCC15579 for biotransformation. The drug concentrations were measured before and after a 12-h incubation by liquid-chromatography-coupled mass spectrometry (LC–MS); conditions: 2 µM
[6] = The drug is tested on Enterococcus faecalis strain: V583 for biotransformation. The drug concentrations were measured before and after a 12-h incubation by liquid-chromatography-coupled mass spectrometry (LC–MS); conditions: 2 µM
[7] = bifidobacterium adolescentis, 12 h, 2 µM
Description: The drug is tested on Bifidobacterium adolescentis strain: ATCC 15703 for biotransformation. The drug concentrations were measured before and after a 12-h incubation by liquid-chromatography-coupled mass spectrometry (LC–MS)

[8] = bacteroides eggerthii, 12 h, 2 µM
Description: The drug is tested on Bacteroides eggerthii strain: DSM20697 for biotransformation. The drug concentrations were measured before and after a 12-h incubation by liquid-chromatography-coupled mass spectrometry (LC–MS)

[9] = bacteroides intestinalis, 12 h, 2 µM
Description: The drug is tested on Bacteroides intestinalis strain: DSM17393 for biotransformation. The drug concentrations were measured before and after a 12-h incubation by liquid-chromatography-coupled mass spectrometry (LC–MS)

[10] = parabacteroides johnsonii, 12 h, 2 µM
Description: The drug is tested on Parabacteroides johnsonii strain: DSM18315 for biotransformation. The drug concentrations were measured before and after a 12-h incubation by liquid-chromatography-coupled mass spectrometry (LC–MS)

[11] = limosilactobacillus reuteri cf48-3a, 12 h, 2 µM
Description: The drug is tested on Lactobacillus reuteri CF48-3A strain: BEI HM-102 for biotransformation. The drug concentrations were measured before and after a 12-h incubation by liquid-chromatography-coupled mass spectrometry (LC–MS)

[12] = The drug is tested on Bacteroides caccae strain: ATCC43185 for biotransformation. The drug concentrations were measured before and after a 12-h incubation by liquid-chromatography-coupled mass spectrometry (LC–MS); conditions: 2 µM
[13] = The drug is tested on Bacteroides coprophilus strain: DSM18228 for biotransformation. The drug concentrations were measured before and after a 12-h incubation by liquid-chromatography-coupled mass spectrometry (LC–MS); conditions: 2 µM
[14] = The drug is tested on Parabacteroides merdae strain: ATCC43184 for biotransformation. The drug concentrations were measured before and after a 12-h incubation by liquid-chromatography-coupled mass spectrometry (LC–MS); conditions: 2 µM
[15] = The drug is tested on Clostridium ramosum strain: DSM1402 for biotransformation. The drug concentrations were measured before and after a 12-h incubation by liquid-chromatography-coupled mass spectrometry (LC–MS); conditions: thomasclavelia ramosa, 2 µM
[16] = The drug is tested on Providencia rettgeri strain: DSM1131 for biotransformation. The drug concentrations were measured before and after a 12-h incubation by liquid-chromatography-coupled mass spectrometry (LC–MS); format: ADME; parameters: dose 2 uM, timepoint 0 vs 12 hours; conditions: 2 µM
[17] = bacteroides thetaiotaomicron, 12 h, 2 µM
Description: The drug is tested on Bacteroides thetaiotaomicron strain: VPI-5482 for biotransformation. The drug concentrations were measured before and after a 12-h incubation by liquid-chromatography-coupled mass spectrometry (LC–MS)

[18] = bacteroides thetaiotaomicron, 12 h, 2 µM; remark: listed apart in the source
Description: The drug is tested on Bacteroides thetaiotaomicron strain: 3731 for biotransformation. The drug concentrations were measured before and after a 12-h incubation by liquid-chromatography-coupled mass spectrometry (LC–MS)

| Structure (SMILES) | Bacterial Biotransformation [1] | Bacterial Biotransformation [2] | Bacterial Biotransformation [3] | Bacterial Biotransformation [4] | Bacterial Biotransformation [5] | Bacterial Biotransformation [6] | Bacterial Biotransformation [7] | Bacterial Biotransformation [8] | Bacterial Biotransformation [9] | Bacterial Biotransformation [10] | Bacterial Biotransformation [11] | Bacterial Biotransformation [12] | Bacterial Biotransformation [13] | Bacterial Biotransformation [14] | Bacterial Biotransformation [15] | Bacterial Biotransformation [16] | Bacterial Biotransformation [17] | Bacterial Biotransformation [18] |
| --- | --- | --- | --- | --- | --- | --- | --- | --- | --- | --- | --- | --- | --- | --- | --- | --- | --- | --- |
| CC(C)NCC(O)COc1ccc(CC(N)=O)cc1 (stereo unspecified) [ATENOLOL] | Compound NOT metabolized | Compound NOT metabolized | Compound NOT metabolized | Compound NOT metabolized | Compound NOT metabolized | Compound NOT metabolized | Compound NOT metabolized | Compound NOT metabolized | Compound NOT metabolized | Compound NOT metabolized | Compound NOT metabolized | – | – | – | – | – | – | – |
| CCN1CCCC1CNC(=O)c1cc(S(=O)(=O)CC)c(N)cc1OC (stereo unspecified) [AMISULPRIDE] | Compound NOT metabolized | Compound NOT metabolized | Compound NOT metabolized | Compound NOT metabolized | Compound NOT metabolized | Compound NOT metabolized | Compound NOT metabolized | Compound NOT metabolized | Compound NOT metabolized | Compound NOT metabolized | Compound NOT metabolized | Compound NOT metabolized | Compound NOT metabolized | Compound NOT metabolized | Compound NOT metabolized | Compound NOT metabolized | Compound NOT metabolized | Compound NOT metabolized |
| CCC1(c2ccc(N)cc2)CCC(=O)NC1=O (stereo unspecified) [AMINOGLUTETHIMIDE] | Compound NOT metabolized | Compound NOT metabolized | Compound NOT metabolized | Compound NOT metabolized | – | Compound NOT metabolized | Compound NOT metabolized | Compound NOT metabolized | Compound NOT metabolized | Compound NOT metabolized | Compound NOT metabolized | Compound NOT metabolized | Compound NOT metabolized | Compound NOT metabolized | Compound NOT metabolized | Compound NOT metabolized | – | Compound NOT metabolized |
| CN(C)CCc1c[nH]c2ccc(CS(=O)(=O)N3CCCC3)cc12 [ALMOTRIPTAN] | Compound NOT metabolized | Compound NOT metabolized | Compound NOT metabolized | Compound NOT metabolized | Compound NOT metabolized | Compound NOT metabolized | Compound NOT metabolized | Compound NOT metabolized | Compound NOT metabolized | – | – | Compound NOT metabolized | Compound NOT metabolized | Compound NOT metabolized | Compound NOT metabolized | Compound NOT metabolized | – | – |
| C[N+]12CCC(CC1)C(OC(=O)C(O)(c1ccccc1)c1ccccc1)C2.[Br-] (stereo unspecified) [CLIDINIUM BROMIDE] | Compound NOT metabolized | Compound NOT metabolized | Compound NOT metabolized | Compound NOT metabolized | Compound NOT metabolized | Compound NOT metabolized | Compound NOT metabolized | Compound NOT metabolized | Compound NOT metabolized | Compound NOT metabolized | – | Compound NOT metabolized | Compound NOT metabolized | Compound NOT metabolized | – | Compound NOT metabolized | Compound NOT metabolized | Compound NOT metabolized |
| CN(C)CCOC(c1ccc(Cl)cc1)c1ccccn1.O=C(O)/C=C\C(=O)O (stereo unspecified) [CARBINOXAMINE MALEATE] | Compound NOT metabolized | Compound NOT metabolized | Compound NOT metabolized | Compound NOT metabolized | Compound NOT metabolized | Compound NOT metabolized | Compound NOT metabolized | Compound NOT metabolized | Compound NOT metabolized | Compound NOT metabolized | – | Compound NOT metabolized | Compound NOT metabolized | Compound NOT metabolized | Compound NOT metabolized | Compound NOT metabolized | Compound NOT metabolized | Compound NOT metabolized |
| Clc1cccc(Cl)c1N=C1NCCN1 [CLONIDINE] | Compound NOT metabolized | Compound NOT metabolized | Compound NOT metabolized | Compound NOT metabolized | Compound NOT metabolized | Compound NOT metabolized | Compound NOT metabolized | – | Compound NOT metabolized | Compound NOT metabolized | Compound NOT metabolized | Compound NOT metabolized | Compound metabolized | Compound NOT metabolized | Compound NOT metabolized | Compound NOT metabolized | Compound metabolized | Compound metabolized |
| C=CCc1ccccc1OCC(O)CNC(C)C (stereo unspecified) [ALPRENOLOL] | Compound NOT metabolized | Compound NOT metabolized | Compound NOT metabolized | Compound NOT metabolized | Compound NOT metabolized | – | Compound NOT metabolized | Compound NOT metabolized | Compound NOT metabolized | – | Compound NOT metabolized | Compound NOT metabolized | Compound NOT metabolized | Compound NOT metabolized | – | Compound NOT metabolized | Compound NOT metabolized | – |
| CN/C(=N/CCSCc1nc[nH]c1C)NC#N [CIMETIDINE] | Compound NOT metabolized | Compound NOT metabolized | Compound NOT metabolized | – | – | Compound NOT metabolized | Compound NOT metabolized | Compound NOT metabolized | Compound NOT metabolized | – | Compound NOT metabolized | – | – | Compound NOT metabolized | Compound NOT metabolized | Compound NOT metabolized | Compound metabolized | Compound metabolized |
| NC12CC3CC(CC(C3)C1)C2 [AMANTADINE] | Compound NOT metabolized | – | Compound NOT metabolized | Compound NOT metabolized | – | Compound NOT metabolized | Compound NOT metabolized | Compound NOT metabolized | – | Compound NOT metabolized | Compound NOT metabolized | Compound NOT metabolized | Compound NOT metabolized | Compound NOT metabolized | Compound NOT metabolized | – | Compound NOT metabolized | Compound NOT metabolized |
| CC(C)(C#N)c1cc(Cn2cncn2)cc(C(C)(C)C#N)c1 [ANASTROZOLE] | – | Compound metabolized | Compound NOT metabolized | Compound NOT metabolized | Compound metabolized | Compound NOT metabolized | Compound NOT metabolized | Compound metabolized | Compound NOT metabolized | Compound metabolized | Compound NOT metabolized | Compound metabolized | Compound metabolized | Compound metabolized | Compound NOT metabolized | – | Compound metabolized | Compound NOT metabolized |
